Data published in patent US10189828B2, “1-methylpyrazole-piperazine compounds having multimodal activity against pain” (LABORATORIOS DEL DR. ESTEVE S.A., priority 2014, dated 2019).

These molecules were tested on human σ1 receptor and human μ-opioid receptor (assay: μ and σ1 dual binding: human σ1 receptor radioligand assay ([3H](+)-pentazocine, transfected HEK-293 membranes) and human μ-opioid receptor radioligand assay ([3H]-DAMGO, transfected CHO-K1 membranes)). Settings: not given.
Parameters: key to μ and σ1 dual binding: +: Both Ki-μ and Ki-σ1>=500 nM; ++: One Ki<500 nM while the other Ki is >=500 nM; +++: Both Ki-μ and Ki-σ1<500 nM; ++++: Both Ki-μ and Ki-σ1<100 nM
In the case of `Cn1nccc1C(c1cccc(C(F)(F)F)n1)N1CCN(CCc2ccccc2)CC1` (centres unmarked) [Example 10, 1-((1-methyl-1H-pyrazol-5-yl)(6-(trifluoromethyl)pyridin-2-yl)methyl)-4-phenethylpiperazine], the “μ and σ1 dual binding” value is reported as “++”. `Cn1nccc1C(c1ccccc1)N1CCN(CCc2cccc(F)c2)CC1` (centres unmarked) [Example 35, 1-(3-Fluorophenethyl)-4-((1-methyl-1H-pyrazol-5-yl)(phenyl)methyl)piperazine] was tested, and the Ki was < 500 nM. `Cn1nccc1C(c1ccccn1)N1CCN(CCc2ccccc2)CC1` (centres unmarked) [Example 4, 1-((1-methyl-1H-pyrazol-5-yl)(pyridin-2-yl)methyl)-4-phenethylpiperazine] was tested, and the “μ and σ1 dual binding” value was “++”. For `Cn1nccc1C(c1ccccc1)N1CCN(Cc2ccccc2)CC1` (centres unmarked) [Example 2, 1-benzyl-4-((1-methyl-1H-pyrazol-5-yl)(phenyl)methyl)piperazine], the “μ and σ1 dual binding” value was “++”. `Cn1nccc1C(c1ccccc1)N1CCN(CCc2ncccc2Cl)CC1` (centres unmarked) [Example 41, 1-(2-(3-chloropyridin-2-yl)ethyl)-4-((1-methyl-1H-pyrazol-5-yl)(phenyl)methyl)piperazine] was tested, and the “μ and σ1 dual binding” value was “++”. For `COc1cccc(C(c2ccnn2C)N2CCN(CCc3ccccc3)CC2)c1` (centres unmarked) [Example 7, 1-((3-methoxyphenyl)(1-methyl-1H-pyrazol-5-yl)methyl)-4-phenethylpiperazine], the Ki was < 100 nM. `Cn1nccc1C(c1ccccc1)N1CCN(CCc2ccccc2F)CC1` (centres unmarked) [Example 22, 1-(2-fluorophenethyl)-4-((1-methyl-1H-pyrazol-5-yl)(phenyl)methyl)piperazine] was tested, and the Ki was < 100 nM. For `Cn1nccc1C(c1ccccc1)N1CCN(CCc2ccccn2)CC1` (centres unmarked) [Example 1, 1-((1-Methyl-1H-pyrazol-5-yl)(phenyl)methyl)-4-(2-(pyridin-2-yl)ethyl)piperazine], the “μ and σ1 dual binding” value was “++”. With `Cn1nccc1C(c1ccccc1)N1CCN(CCc2ccccc2)CC1` (centres unmarked) [Example 3, 1-((1-methyl-1H-pyrazol-5-yl)(phenyl)methyl)-4-phenethylpiperazine] the Ki was < 100 nM. With `Cn1nccc1C(c1ccc(F)cn1)N1CCN(CCc2cccc(F)c2)CC1` (centres unmarked) [Example 38, 1-(3-fluorophenethyl)-4-((5-fluoropyridin-2-yl)(1-methyl-1H-pyrazol-5-yl)methyl)piperazine] the Ki was < 500 nM. With `Cn1nccc1C(c1ccc(F)cn1)N1CCN(CCc2ncccc2Cl)CC1` (centres unmarked) [Example 43, 1-(2-(3-chloropyridin-2-yl)ethyl)-4-((5-fluoropyridin-2-yl)(1-methyl-1H-pyrazol-5-yl)methyl)piperazine] the “μ and σ1 dual binding” value was “++”. With `Cn1nccc1C(c1cccc(O)c1)N1CCN(CCc2ccccc2)CC1` (centres unmarked) [Example 29, 3-((1-methyl-1H-pyrazol-5-yl)(4-phenethylpiperazin-1-yl)methyl)phenol] the Ki was < 500 nM. In the case of `Cn1nccc1C(c1ccccc1)N1CCN(CCc2ccccc2O)CC1` (centres unmarked) [Example 28, 2-(2-(4-((1-Methyl-1H-pyrazol-5-yl)(phenyl)methyl)piperazin-1-yl)ethyl)phenol], the “μ and σ1 dual binding” value is reported as “++”. For `Cn1nccc1C(c1ccccc1)N1CCN(CCc2ccc(F)cc2)CC1` (centres unmarked) [Example 23, 1-(4-fluorophenethyl)-4-((1-methyl-1H-pyrazol-5-yl)(phenyl)methyl)piperazine], the “μ and σ1 dual binding” value was “++”. In the case of `Cn1nccc1C(c1ccc(F)cn1)N1CCN(CCc2ccccc2F)CC1` (centres unmarked) [Example 26, 1-(2-fluorophenethyl)-4-((5-fluoropyridin-2-yl)(1-methyl-1H-pyrazol-5-yl)methyl)piperazine], the “μ and σ1 dual binding” value is reported as “++”. `Cn1nccc1C(c1cncc(F)c1)N1CCN(CCc2ccccc2)CC1` (centres unmarked) [Example 13, 1-((5-fluoropyridin-3-yl)(1-methyl-1H-pyrazol-5-yl)methyl)-4-phenethylpiperazine] was tested, and the “μ and σ1 dual binding” value was “++”. With `COc1cccc(CCN2CCN(C(c3ccc(F)cn3)c3ccnn3C)CC2)c1` (centres unmarked) [Example 27, 1-((5-fluoropyridin-2-yl)(1-methyl-1H-pyrazol-5-yl)methyl)-4-(3-methoxyphenethyl)piperazine] the “μ and σ1 dual binding” value was “++”. `Cn1nccc1C(c1ccc(F)cn1)N1CCN(CCc2ccccc2)CC1` (centres unmarked) [Example 12, 1-((5-fluoropyridin-2-yl)(1-methyl-1H-pyrazol-5-yl)methyl)-4-phenethylpiperazine] was tested, and the Ki was < 500 nM. With `Cn1nccc1C(c1cccnc1C(F)(F)F)N1CCN(CCc2ccccc2)CC1` (centres unmarked) [Example 17, 1-((1-methyl-1H-pyrazol-5-yl)(2-(trifluoromethyl)pyridin-3-yl)methyl)-4-phenethylpiperazine] the Ki was < 500 nM. With `COc1ccccc1C(c1ccnn1C)N1CCN(CCc2ccccc2)CC1` (centres unmarked) [Example 8, 1-((2-methoxyphenyl)(1-methyl-1H-pyrazol-5-yl)methyl)-4-phenethylpiperazine] the Ki was < 500 nM. In the case of `Cn1nccc1C(c1ccccc1)N1CCN(CC(O)c2ccccc2)CC1` (centres unmarked) [Example 39, 2-(4-((1-Methyl-1H-pyrazol-5-yl)(phenyl)methyl)piperazin-1-yl)-1-phenylethanol], the “μ and σ1 dual binding” value is reported as “++”. With `Cn1nccc1C(c1ccccc1)N1CCN(CCc2cccc(O)c2)CC1` (centres unmarked) [Example 30, 3-(2-(4-((1-methyl-1H-pyrazol-5-yl)(phenyl)methyl)piperazin-1-yl)ethyl)phenol] the Ki was < 100 nM. In the case of `Cn1nccc1C(c1ccccc1)N1CCN(CCc2ccncc2)CC1` (centres unmarked) [Example 37, 1-((1-methyl-1H-pyrazol-5-yl)(phenyl)methyl)-4-(2-(pyridin-4-yl)ethyl)piperazine], the “μ and σ1 dual binding” value is reported as “++”. `Cn1nccc1C(c1ccc(F)cn1)N1CCN(CCc2cccc(O)c2)CC1` (centres unmarked) [Example 31, 3-(2-(4-((5-fluoropyridin-2-yl)(1-methyl-1H-pyrazol-5-yl)methyl)piperazin-1-yl)ethyl)phenol] was tested, and the “μ and σ1 dual binding” value was “++”. For `Cn1nccc1C(c1ccncc1)N1CCN(CCc2ccccc2)CC1` (centres unmarked) [Example 20, 1-((1-methyl-1H-pyrazol-5-yl)(pyridin-4-yl)methyl)-4-phenethylpiperazine], the “μ and σ1 dual binding” value was “++”. For `Cn1nccc1C(c1cnccc1C(F)(F)F)N1CCN(CCc2ccccc2)CC1` (centres unmarked) [Example 19, 1-((1-methyl-1H-pyrazol-5-yl)(4-(trifluoromethyl)pyridin-3-yl)methyl)-4-phenethylpiperazine], the “μ and σ1 dual binding” value was “++”. For `Cn1nccc1C(c1ccc(C(F)(F)F)nc1)N1CCN(CCc2ccccc2)CC1` (centres unmarked) [Example 11, 1-((1-methyl-1H-pyrazol-5-yl)(6-(trifluoromethyl)pyridin-3-yl)methyl)-4-phenethylpiperazine], the “μ and σ1 dual binding” value was “++”. For `Cn1nccc1C(c1ccc(C(F)(F)F)cn1)N1CCN(CCc2ccccc2)CC1` (centres unmarked) [Example 14, 1-((1-methyl-1H-pyrazol-5-yl)(5-(trifluoromethyl)pyridin-2-yl)methyl)-4-phenethylpiperazine], the “μ and σ1 dual binding” value was “++”. With `Cn1nccc1C(c1cccnc1)N1CCN(CCc2ccccc2)CC1` (centres unmarked) [Example 5, 1-((1-methyl-1H-pyrazol-5-yl)(pyridin-3-yl)methyl)-4-phenethylpiperazine] the “μ and σ1 dual binding” value was “++”. `COc1cccc(CCN2CCN(C(c3ccccc3)c3ccnn3C)CC2)c1` (centres unmarked) [Example 21, 1-(3-Methoxyphenethyl)-4-((1-methyl-1H-pyrazol-5-yl)(phenyl)methyl)piperazine] was tested, and the Ki was < 500 nM. In the case of `COc1ccc(C(c2ccnn2C)N2CCN(CCc3ccccc3)CC2)cc1` (centres unmarked) [Example 9, 1-((4-methoxyphenyl)(1-methyl-1H-pyrazol-5-yl)methyl)-4-phenethylpiperazine], the Ki is reported as < 500 nM.

Same assay, conditions: one combined class for Ki-μ and Ki-σ1
For `Cn1nccc1C(c1ccccc1)N1CCN(CCc2cccc(N(S(C)(=O)=O)S(C)(=O)=O)n2)CC1` (centres unmarked) [Example 45, N-(6-(2-(4-((1-methyl-1H-pyrazol-5-yl)(phenyl)methyl)piperazin-1-yl)ethyl)pyridin-2-yl)-N-(methylsulfonyl)methanesulfonamide], the Ki was ≥ 500 nM. In the case of `Cn1nccc1C(c1ccccc1)N1CCN(CCc2cccnc2)CC1` (centres unmarked) [Example 36, 1-((1-methyl-1H-pyrazol-5-yl)(phenyl)methyl)-4-(2-(pyridin-3-yl)ethyl)piperazine], the Ki is reported as ≥ 500 nM. With `COc1ccccc1CCN1CCN(C(c2ccccc2)c2ccnn2C)CC1` (centres unmarked) [Example 6, 1-(2-methoxyphenethyl)-4-((1-methyl-1H-pyrazol-5-yl)(phenyl)methyl)piperazine] the Ki was ≥ 500 nM. For `Cn1nccc1C(c1ccccc1)N1CCN(CCc2ccc(C(F)(F)F)nc2)CC1` (centres unmarked) [Example 24, 1-((1-methyl-1H-pyrazol-5-yl)(phenyl)methyl)-4-(2-(6-(trifluoromethyl)pyridin-3-yl)ethyl)piperazine], the Ki was ≥ 500 nM. With `Cn1nccc1C(c1ccccc1)N1CCN(CCc2ncccc2F)CC1` (centres unmarked) [Example 33, 1-(2-(3-Fluoropyridin-2-yl)ethyl)-4-((1-methyl-1H-pyrazol-5-yl)(phenyl)methyl)piperazine] the Ki was ≥ 500 nM. For `Cn1nccc1C(c1ccccc1)N1CCN(CCc2csc(NC(=O)OC(C)(C)C)n2)CC1` (centres unmarked) [Example 25, tert-butyl 4-(2-(4-((1-methyl-1H-pyrazol-5-yl)(phenyl)methyl)piperazin-1-yl)ethyl)thiazol-2-ylcarbamate], the Ki was ≥ 500 nM. For `Cn1nccc1C(c1ccccc1)N1CCN(CCc2cccc(N)n2)CC1` (centres unmarked) [Example 40, 6-(2-(4-((1-Methyl-1H-pyrazol-5-yl)(phenyl)methyl)piperazin-1-yl)ethyl)pyridin-2-amine], the Ki was ≥ 500 nM. In the case of `Cn1nccc1C(c1ccc(F)cn1)N1CCN(CCc2ccccn2)CC1` (centres unmarked) [Example 15, 1-((5-fluoropyridin-2-yl)(1-methyl-1H-pyrazol-5-yl)methyl)-4-(2-(pyridin-2-yl)ethyl)piperazine], the Ki is reported as ≥ 500 nM. With `Cn1nccc1C(c1ccccc1)N1CCN(CCc2csc(N)n2)CC1` (centres unmarked) [Example 32, 4-(2-(4-((1-Methyl-1H-pyrazol-5-yl)(phenyl)methyl)piperazin-1-yl)ethyl)thiazol-2-amine] the Ki was ≥ 500 nM. For `Cn1nccc1C(c1ccccc1)N1CCN(CCc2cccc(NS(C)(=O)=O)n2)CC1` (centres unmarked) [Example 44, N-(6-(2-(4-((1-methyl-1H-pyrazol-5-yl)(phenyl)methyl)piperazin-1-yl)ethyl)pyridin-2-yl)methanesulfonamide], the Ki was ≥ 500 nM.
